Experimental data taken from article PMC4207412, “Secondary Structural Preferences of Some Antibacterial Cyclooctapeptides in the Presence of Calcium(II)” (International Journal of Medicinal Chemistry, 2012).
Read-outs that look alike come from different tables or passages of the source. Square brackets hold non-standard residues; d marks the D form. Peptide text beside a SMILES is read from it.

How the values were obtained:
[1] = system: Staphylococcus aureus ATCC 10566; type: cell-based
Description: (§1) Microbiological studies were performed on Escherichia coli ATCC 25922 and Staphylococcus aureus ATCC 10566 (American Type Culture Collection (ATCC), Rockville, MD, USA) using carefully standardized conditions. A suspension of the bacteria (in exponential phase of growth) was prepared and then diluted to yield a final concentration of approximately 1 × 10^5 colony forming units (cfu) per milliliter. Stock peptides were dissolved in 9% sucrose solutions containing 5% dimethyl sulfoxide. The 96-well microtiter tray containing the bacterial cultures and peptides was incubated for 18 hrs at 35°C. […] All tests were conducted in triplicate and the reported MIC values were derived from at least three independent experiments.
(§2) COP 4–9 were then designed to include a glutamyl residue to reduce the overall cationic charges on these amphipathic cyclopeptides. […] A lysine residue in COP 4 was sequentially substituted with histidine in COP 5, cysteine in COP 6, and leucine in COP 7. […] As the net positive charges of the cyclopeptide decreased, antimicrobial activity decreased by fourfold (see COP 6). […] The decreasing antimicrobial activities of these cyclopeptides could be attributed to their diminishing cationic character and an inadequate balance of amphipathic residues in their sequences. These structurally similar cyclopeptides (COP 1–9) were subsequently evaluated for calcium(II) binding affinity by ITC and assessed for conformational changes upon calcium(II) binding by circular dichroism (CD).

[2] = system: Escherichia coli ATCC 25922; type: cell-based
Description: as §1, §2

[3] = Isothermal titration calorimetry of Ca2+ binding in micellar DPC (10 mM); conditions: ITC, 30°C, 10% aqueous acetonitrile containing 10 mM micellar DPC; one-site model; mean of three experiments ± standard error mean
Description: (§3) Microcalorimetric titrations of peptides with metal ions were conducted by isothermal titration microcalorimetry (ITC) using a Microcal VP-ITC Instrument (Northampton, MA, USA). Experiments were carried out at 30°C in 10% acetonitrile in water. The peptide concentration was 0.15 or 0.30 mM (1.34 mL sample cell), and the metal ion [Ca(ClO4)2] concentration was varied from 9 to 15 mM in the syringe. Automated titrations were conducted until saturation, up to a Ca^2+/peptide mole ratio of about 12 : 1. Heats of dilution and mixing for each experiment were measured by titrating calcium(II) solution into 10% acetonitrile solution. The effective heat of each peptide and calcium(II) interaction was corrected for dilution and mixing effects by subtracting the enthalpy change derived from the titration of calcium(II) solution into the 10% acetonitrile solution without the peptide. In a similar way, ITC experiments were carried out at 30°C in 10% aqueous acetonitrile containing 10 mM DPC. These heats of bimolecular interactions were obtained by integrating the peak following each injection of calcium(II). The binding isotherms were derived from the raw ITC data following correction for dilution and mixing effects. These isotherms were fitted using the one-site model by a nonlinear least square analysis with Microcal Origin 7.0 software (Microcal Software, Inc., Northampton, MA, USA) to determine the molar enthalpy change for binding, ΔH, and the corresponding binding constant, K b. From these values, the thermodynamic characterization of the interaction at 30°C was determined from the fundamental equations of thermodynamics, ΔG = −RT ln K b and ΔS = (ΔH − ΔG)/T.
In order to mimic the hydrophobic environment of the bacterial membrane that antimicrobial peptides commonly target, the interactions of these cyclopeptides with calcium(II) were also conducted in the presence of micellar dodecylphosphocholine (DPC). […] However, their association is compensated by an increase in entropy (ΔS values range from ca. 42.7 to 66.5 JK^−1 mol^−1). This entropy/enthalpy compensation could be attributed to a greater degree of dehydration of the hydration spheres around the cyclopeptide molecules and calcium ions following complex formation in the hydrophobic micellar DPC environment. However, there is no significant trend in the enthalpy or entropy changes following calcium(II) binding in the presence of micellar DPC.

[4] = Isothermal titration calorimetry of Ca2+ binding in 10% acetonitrile in water; conditions: ITC, 30°C, no DPC, peptide 0.15 or 0.30 mM, Ca(ClO4)2 9 to 15 mM in syringe, one-site model, mean of three experiments ± standard error mean
Description: as §3

[5] = Mueller-Hinton microbroth dilution, ca. 1 × 10^5 cfu/mL, 18 hrs at 35°C, visual turbidity, range tested 256 to 2 μg/mL, triplicate, at least three independent experiments

Row | S. aureus ATCC 10566 MIC ([1]; ATCC 10566, 18 h) | E. coli ATCC 25922 MIC ([2]; ATCC 25922, 18 h) | Binding affinity for Ca^2+ K b [3] | Binding affinity for Ca^2+ K b [4] | S. aureus ATCC 10566 MIC [1, 5] | E. coli ATCC 25922 MIC [2, 5] | SMILES
1 | >256 mg/L | >256 mg/L | (4.7 ± 1.0) × 10^3 M^−1 | (8.0 ± 1.2) × 10^3 M^−1 |  |  | CC(C)C[C@@H]1NC(=O)[C@@H](CC(C)C)NC(=O)[C@H](CC(C)C)NC(=O)[C@@H](CC(C)C)NC(=O)[C@H](CCC(=O)O)NC(=O)[C@@H](CCCCN)NC(=O)[C@H](CCCCN)NC(=O)[C@@H](CCCCN)NC1=O [COP 7] (cyclo(E[dL]L[dL]L[dK]K[dK]))
2 | 16 mg/L | 16 mg/L | (3.3 ± 0.3) × 10^3 M^−1 | (7.9 ± 2.8) × 10^3 M^−1 |  |  | CC(C)C[C@@H]1NC(=O)[C@@H](CC(C)C)NC(=O)[C@H](CCCCN)NC(=O)[C@@H](CCCCN)NC(=O)[C@H](CCCCN)NC(=O)[C@@H](CCCCN)NC(=O)[C@H](CS)NC(=O)[C@@H](CC(C)C)NC1=O [COP 3] (cyclo(C[dK]K[dK]K[dL]L[dL]))
3 | 128 mg/L | 32 mg/L | (5.4 ± 0.6) × 10^3 M^−1 | (5.3 ± 1.4) × 10^3 M^−1 |  |  | CC(C)C[C@@H]1NC(=O)[C@@H](CC(C)C)NC(=O)[C@H](CCC(=O)O)NC(=O)[C@@H](CCCCN)NC(=O)[C@H](CCCCN)NC(=O)[C@@H](CCCCN)NC(=O)[C@H](Cc2c[nH]cn2)NC(=O)[C@@H](CC(C)C)NC1=O [COP 5] (cyclo(E[dL]L[dL]H[dK]K[dK]))
4 | >256 mg/L | >256 mg/L | (4.1 ± 0.03) × 10^3 M^−1 | (5.4 ± 1.2) × 10^3 M^−1 |  |  | CC(C)C[C@@H]1NC(=O)[C@@H](CC(C)C)NC(=O)[C@H](CCC(=O)O)NC(=O)[C@@H](CCCCN)NC(=O)[C@H](CCCCN)NC(=O)[C@@H](CCCCN)NC(=O)[C@H](CCC(=O)O)NC(=O)[C@@H](CC(C)C)NC1=O [COP 9] (cyclo(E[dK]K[dK]E[dL]L[dL]))
5 |  |  |  | (4.8 ± 1.3) × 10^3 M^−1 | 8 mg/L | 16 mg/L | CC(C)C[C@@H]1NC(=O)[C@@H](CC(C)C)NC(=O)[C@H](CC(C)C)NC(=O)[C@@H](CCCCN)NC(=O)[C@H](CCCCN)NC(=O)[C@@H](CCCCN)NC(=O)[C@H](CCCCN)NC(=O)[C@@H](Cc2c[nH]c3ccccc23)NC1=O [COP 2] (cyclo(K[dK]K[dK]L[dL]L[dW]))
6 |  |  |  | (3.4 ± 0.6) × 10^3 M^−1 | 8 mg/L | 16 mg/L | CC(C)C[C@@H]1NC(=O)[C@@H](CCCCN)NC(=O)[C@H](CCCCN)NC(=O)[C@@H](CCCCN)NC(=O)[C@H](CCCCN)NC(=O)[C@@H](CC(C)C)NC(=O)[C@H](CC(C)C)NC(=O)[C@@H](CC(C)C)NC1=O [COP 1] (cyclo(K[dK]K[dK]L[dL]L[dL]))
7 | >256 mg/L | >256 mg/L | (4.4 ± 0.02) × 10^3 M^−1 | (4.9 ± 0.3) × 10^3 M^−1 |  |  | CC(C)C[C@@H]1NC(=O)[C@@H](CC(C)C)NC(=O)[C@H](CCC(=O)O)NC(=O)[C@@H](CCCCN)NC(=O)[C@H](Cc2c[nH]cn2)NC(=O)[C@@H](CCCCN)NC(=O)[C@H](Cc2c[nH]cn2)NC(=O)[C@@H](CC(C)C)NC1=O [COP 8] (cyclo(E[dL]L[dL]H[dK]H[dK]))
8 | 128 mg/L | 128 mg/L | (4.9 ± 0.7) × 10^3 M^−1 | (6.4 ± 2.8) × 10^3 M^−1 |  |  | CC(C)C[C@@H]1NC(=O)[C@@H](CC(C)C)NC(=O)[C@H](CCC(=O)O)NC(=O)[C@@H](CCCCN)NC(=O)[C@H](CCCCN)NC(=O)[C@@H](CCCCN)NC(=O)[C@H](CS)NC(=O)[C@@H](CC(C)C)NC1=O [COP 6] (cyclo(C[dK]K[dK]E[dL]L[dL]))

Row | SMILES | S. aureus ATCC 10566 MIC ([1]; ATCC 10566, 18 h) | E. coli ATCC 25922 MIC ([2]; ATCC 25922, 18 h) | Binding affinity for Ca^2+ K b [3] | Binding affinity for Ca^2+ K b [4] | S. aureus ATCC 10566 MIC [1, 5] | E. coli ATCC 25922 MIC [2, 5]
9 | CC(C)C[C@@H]1NC(=O)[C@@H](CC(C)C)NC(=O)[C@H](CCC(=O)O)NC(=O)[C@@H](CCCCN)NC(=O)[C@H](CCCCN)NC(=O)[C@@H](CCCCN)NC(=O)[C@H](CCCCN)NC(=O)[C@@H](CC(C)C)NC1=O [COP 4] (cyclo(E[dL]L[dL]K[dK]K[dK])) |  |  | (4.7 ± 1.1) × 10^3 M^−1 | (3.1 ± 0.7) × 10^3 M^−1 | 32 mg/L | 16 mg/L
